Data: US20250368666A1, “INDAZOLE COMPOUNDS” (TYRA BIOSCIENCES, INC., priority 2022, published 2025)

Tests used:
FGFR1 = target: T1, FGFR1 (Homo sapiens, UniProt P11362); assay: Kinase binding assay (kinase-tagged T7 phage, affinity beads, qPCR), Kd; conditions: read-out: FGFR1 (Kd nM)
T1 construct: made in house; host or cells: E. coli (BL21-derived), T7 phage
Outline: (§1)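 First, phage lysates carrying tagged kinase are made in E. coli at 32° C. Next, they are combined with blocked biotin-ligand streptavidin beads and compound at 0.9% final DMSO. Finally, eluted kinase is measured by qPCR and Kd is fitted with the Hill equation.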

FGFR2 = target: T2, FGFR2 (Homo sapiens, UniProt P21802); assay: as above; conditions: read-out: FGFR2 (Kd nM)
T2 construct: made in house; host or cells: E. coli (BL21-derived), T7 phage
Outline: as §1

FGFR3 = target: T3, FGFR3 (Homo sapiens, UniProt P22607); assay: as above; conditions: read-out: FGFR3 (Kd nM)
T3 construct: made in house; host or cells: E. coli (BL21-derived), T7 phage
Outline: as §1

FGFR3 (V555M) = target: T4, FGFR3 (V555M) (Homo sapiens, UniProt P22607, V555M); assay: as above; conditions: V555M mutant; read-out: FGFR3 (V555M) (Kd nM)
T4 construct: made in house; host or cells: E. coli (BL21-derived), T7 phage
Outline: as §1

FGFR4 = target: T5, FGFR4 (Homo sapiens, UniProt P22455); assay: as above; conditions: read-out: FGFR4 (Kd nM)
T5 construct: made in house; host or cells: E. coli (BL21-derived), T7 phage
Outline: as §1

[1] = test system: HuH7 cell line (FGF19 amplification); assay: Cancer cell line cell viability assay (Cell Titer-Glo), 120 hr; format: cell-based; conditions: Homo sapiens, Huh-7
Text: Experimental Purpose: To detect the change of intracellular ATP by Cell Titer-Glo® and to evaluate the inhibitory effect of the compounds on cancer cell lines by determining the in vitro IC50 value of the compounds.
Cell Titer-Glo® 2.0 Luminescent cell viability assay reagent was purchased from Promega (Madison, WI). KG-1, KATO-III, and MDA-MB-453 cell lines were purchased from American Type Culture Collection (Manassas, VA). RT112/84 cell line was purchased from Millipore-Sigma (St. Louis, MO). HuH7 cells were purchased from Seikisui Xenotech (Kansas City, KS). RT112/84 and MDA-MB-453 cells were cultured in RPMI1640 media supplemented with 10% fetal bovine serum. KG-1 and KATO-III cell lines were cultured in IMDM media supplemented with 20% FBS. HuH7 cells were cultured in IMDM media supplemented with 10% FBS. Cultures were maintained at 37° C. in a humidified atmosphere of 5% CO2 and 95% air.
Cell Viability Assay Procedure: Cells were plated in 96-well clear bottom/white plates (Corning #3903) at a range of densities depending on the optimal assay window (5,000-20,000 cells/well in […] of media), incubated overnight. The next day, test compound DMSO stock solutions were made at 10 mM and […] final concentration. Compounds were then added to cells in a 9-dose, 4-fold dilution series starting at 3 μM with an HP 300e Digital Dispenser (each dose was applied in triplicate). DMSO was backfilled to each well up to 301 nL total volume of test compound+DMSO, and a total of 301 nL DMSO was added to a control/no test compound well in triplicate. The cells in cell culture plates were incubated with the compounds at 37° C. and 5% CO2 for 72 hours-120 hours depending on the cell line. Then 50 μl of Cell Titer Glo 2.0 reagent was added to each well of the cell culture plates. The contents were covered from light and mixed on an orbital shaker at room temperature for minimum of 10 min. Luminescence was recorded by a Clariostar Plus Microplate Reader (BMG Labtech, Cary, NC). Cells were assessed as a percentage of DMSO only treated control cells. Curves were plotted and IC50 values were calculated using the GraphPad Prism 9 program based on a sigmoidal dose-response equation (log (inhibitor) vs. response—Variable slope, 4-parameter).

T5 sequence (P22455 22-802): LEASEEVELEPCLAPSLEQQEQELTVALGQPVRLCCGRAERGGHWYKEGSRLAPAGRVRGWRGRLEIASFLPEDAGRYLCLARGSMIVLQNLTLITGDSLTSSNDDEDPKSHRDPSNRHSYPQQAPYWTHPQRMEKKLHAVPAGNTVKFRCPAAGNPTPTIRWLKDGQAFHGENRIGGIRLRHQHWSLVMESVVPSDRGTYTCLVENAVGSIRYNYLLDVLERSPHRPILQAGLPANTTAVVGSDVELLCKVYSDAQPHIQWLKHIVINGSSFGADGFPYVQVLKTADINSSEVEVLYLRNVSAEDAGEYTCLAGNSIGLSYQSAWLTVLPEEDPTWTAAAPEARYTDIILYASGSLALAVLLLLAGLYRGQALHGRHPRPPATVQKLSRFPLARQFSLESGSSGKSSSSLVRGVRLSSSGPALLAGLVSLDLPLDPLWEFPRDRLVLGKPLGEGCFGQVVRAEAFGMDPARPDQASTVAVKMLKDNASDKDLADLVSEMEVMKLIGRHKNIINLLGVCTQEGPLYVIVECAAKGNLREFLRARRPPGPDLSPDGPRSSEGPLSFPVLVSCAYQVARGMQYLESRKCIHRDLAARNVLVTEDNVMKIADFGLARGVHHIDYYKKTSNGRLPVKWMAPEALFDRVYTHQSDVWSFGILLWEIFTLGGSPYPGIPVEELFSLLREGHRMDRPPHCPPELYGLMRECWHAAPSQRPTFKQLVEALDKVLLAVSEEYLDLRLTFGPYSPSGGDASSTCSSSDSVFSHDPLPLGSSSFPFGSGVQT
T2 sequence (P21802 22-821): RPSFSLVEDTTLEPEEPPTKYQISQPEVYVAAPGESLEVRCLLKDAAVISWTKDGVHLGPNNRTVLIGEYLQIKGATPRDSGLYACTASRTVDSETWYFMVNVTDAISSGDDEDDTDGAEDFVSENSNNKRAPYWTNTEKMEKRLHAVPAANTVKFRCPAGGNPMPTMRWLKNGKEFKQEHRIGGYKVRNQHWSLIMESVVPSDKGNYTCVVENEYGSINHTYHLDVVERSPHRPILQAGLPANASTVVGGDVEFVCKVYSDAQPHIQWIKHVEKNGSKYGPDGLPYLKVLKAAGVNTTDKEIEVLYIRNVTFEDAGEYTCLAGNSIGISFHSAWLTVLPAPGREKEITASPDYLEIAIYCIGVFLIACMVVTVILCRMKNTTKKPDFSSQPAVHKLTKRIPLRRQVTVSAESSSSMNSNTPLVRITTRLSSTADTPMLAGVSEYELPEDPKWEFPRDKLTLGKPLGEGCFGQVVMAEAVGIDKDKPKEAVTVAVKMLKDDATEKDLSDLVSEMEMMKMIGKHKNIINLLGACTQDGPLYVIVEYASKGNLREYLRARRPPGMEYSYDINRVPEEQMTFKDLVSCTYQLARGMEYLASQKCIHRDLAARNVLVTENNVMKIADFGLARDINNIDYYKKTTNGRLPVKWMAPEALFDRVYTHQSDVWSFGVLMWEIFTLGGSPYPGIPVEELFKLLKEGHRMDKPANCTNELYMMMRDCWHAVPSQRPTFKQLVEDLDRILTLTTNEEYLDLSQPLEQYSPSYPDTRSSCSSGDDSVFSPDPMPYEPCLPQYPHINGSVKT
T1 sequence (P11362 22-822): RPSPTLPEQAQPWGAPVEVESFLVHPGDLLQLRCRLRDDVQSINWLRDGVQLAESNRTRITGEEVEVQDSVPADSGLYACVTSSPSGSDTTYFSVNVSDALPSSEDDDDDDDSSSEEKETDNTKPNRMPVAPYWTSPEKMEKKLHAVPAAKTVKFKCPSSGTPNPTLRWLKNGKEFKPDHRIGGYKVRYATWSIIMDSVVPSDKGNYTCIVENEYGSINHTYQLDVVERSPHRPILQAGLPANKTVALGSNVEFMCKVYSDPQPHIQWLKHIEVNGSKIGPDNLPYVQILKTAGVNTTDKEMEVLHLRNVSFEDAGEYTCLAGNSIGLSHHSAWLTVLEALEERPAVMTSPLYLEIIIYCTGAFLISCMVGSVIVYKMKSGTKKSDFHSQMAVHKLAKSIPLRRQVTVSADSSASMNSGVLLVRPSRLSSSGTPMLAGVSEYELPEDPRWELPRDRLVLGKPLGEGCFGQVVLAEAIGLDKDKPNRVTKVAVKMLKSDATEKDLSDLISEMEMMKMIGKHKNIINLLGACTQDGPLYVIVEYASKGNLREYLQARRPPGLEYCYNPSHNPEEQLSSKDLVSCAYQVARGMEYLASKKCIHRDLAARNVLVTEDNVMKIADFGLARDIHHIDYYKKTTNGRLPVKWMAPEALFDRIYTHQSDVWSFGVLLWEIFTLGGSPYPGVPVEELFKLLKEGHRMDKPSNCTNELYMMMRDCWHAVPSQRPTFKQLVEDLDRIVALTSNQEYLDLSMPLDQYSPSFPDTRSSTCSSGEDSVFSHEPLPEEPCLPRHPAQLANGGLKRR
T4 sequence (P22607 23-806 V555M): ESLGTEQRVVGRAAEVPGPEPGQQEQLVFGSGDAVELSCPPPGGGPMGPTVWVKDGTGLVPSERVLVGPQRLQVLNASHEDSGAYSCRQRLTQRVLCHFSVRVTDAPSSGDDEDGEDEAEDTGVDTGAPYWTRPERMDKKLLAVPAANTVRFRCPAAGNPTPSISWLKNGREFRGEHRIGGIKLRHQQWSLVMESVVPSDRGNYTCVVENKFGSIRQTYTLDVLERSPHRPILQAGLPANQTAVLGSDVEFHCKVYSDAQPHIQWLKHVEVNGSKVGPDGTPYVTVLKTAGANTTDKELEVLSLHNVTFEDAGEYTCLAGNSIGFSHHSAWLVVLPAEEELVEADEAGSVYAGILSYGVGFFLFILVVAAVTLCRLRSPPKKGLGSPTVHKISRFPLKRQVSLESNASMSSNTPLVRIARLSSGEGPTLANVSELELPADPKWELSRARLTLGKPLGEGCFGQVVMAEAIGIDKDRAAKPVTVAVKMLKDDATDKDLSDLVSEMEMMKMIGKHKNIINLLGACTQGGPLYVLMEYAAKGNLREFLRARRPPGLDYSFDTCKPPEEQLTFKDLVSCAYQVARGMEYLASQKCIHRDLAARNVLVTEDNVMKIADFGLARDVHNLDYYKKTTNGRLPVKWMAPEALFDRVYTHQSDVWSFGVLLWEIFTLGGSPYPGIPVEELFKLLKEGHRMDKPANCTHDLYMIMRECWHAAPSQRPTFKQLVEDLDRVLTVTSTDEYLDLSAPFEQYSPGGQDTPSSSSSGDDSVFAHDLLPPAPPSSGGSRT
T3 sequence (P22607 23-806): as the sequence (P22607 23-806 V555M) above, with M533V counted along it

C[C@@H](Oc1ccc2[nH]nc(-c3cnc(N4CC(C)(CNS(C)(=O)=O)C4)c(C#N)c3)c2c1)c1c(Cl)cncc1Cl [Example 18, (R)-N-((1-(3-cyano-5-(5-(1-(3,5-dichloropyridin-4-yl)ethoxy)-1H-indazol-3-yl)pyridin-2-yl)-3-methylazetidin-3-yl)methyl)methane-sulfonamide]
Kd (FGFR1): 50 to 300 nM
Kd (FGFR2): 50 to 300 nM
Kd (FGFR3): 1 to 50 nM
Kd (FGFR3 (V555M)): 1 to 50 nM
Kd (FGFR4): 1 to 50 nM
IC50 [1]: 0.1 to 50 nM

C[C@@H](Oc1ccc2[nH]nc(-c3cnc(N4CC(C)(N(C)C)C4)c(C#N)c3)c2c1)c1c(Cl)cncc1Cl [Example 29, (R)-5-(5-(1-(3,5-dichloropyridin-4-yl)ethoxy)-1H-indazol-3-yl)-2-(3-(dimethylamino)-3-methylazetidin-1-yl)nicotinonitrile]
Kd (FGFR1): 50 to 300 nM
Kd (FGFR2): 50 to 300 nM
Kd (FGFR3): 1 to 50 nM
Kd (FGFR3 (V555M)): 1 to 50 nM
Kd (FGFR4): 1 to 50 nM
IC50 [1]: 50 to 200 nM

Cc1ncc(Cl)c([C@@H](C)Oc2ccc3[nH]nc(-c4cnc(N5CC(C)(NC6COC6)C5)c(C#N)c4)c3c2)c1Cl [Example 30, 5-[5-[(1R)-1-(3,5-dichloro-2-methyl-4-pyridyl)ethoxy]-1H-indazol-3-yl]-2-[3-methyl-3-(oxetan-3-ylamino)azetidin-1-yl]pyridine-3-carbonitrile]
Kd (FGFR1): 1 to 50 nM
Kd (FGFR2): 1 to 50 nM
Kd (FGFR3): 1 to 50 nM
Kd (FGFR3 (V555M)): 1 to 50 nM
Kd (FGFR4): 1 to 50 nM
IC50 [1]: 0.1 to 50 nM

CCN(CC)C1(C)CN(c2ncc(-c3n[nH]c4ccc(O[C@H](C)c5c(Cl)cncc5Cl)cc34)cc2C#N)C1 [Example 31, 5-[5-[(1R)-1-(3,5-dichloro-4-pyridyl)ethoxy]-1H-indazol-3-yl]-2-[3-(diethylamino)-3-methyl-azetidin-1-yl]pyridine-3-carbonitrile]
Kd (FGFR1): 1 to 50 nM
Kd (FGFR2): 50 to 300 nM
Kd (FGFR3): 1 to 50 nM
Kd (FGFR3 (V555M)): 1 to 50 nM
Kd (FGFR4): 1 to 50 nM
IC50 [1]: 50 to 200 nM

CNC1(C)CN(c2ncc(-c3n[nH]c4ccc(O[C@H](C)c5c(Cl)cnc(C)c5Cl)cc34)cc2C#N)C1 [Example 32, 5-[5-[(1R)-1-(3,5-dichloro-2-methyl-4-pyridyl)ethoxy]-1H-indazol-3-yl]-2-[3-methyl-3-(methylamino)azetidin-1-yl]pyridine-3-carbonitrile]
Kd (FGFR1): 1 to 50 nM
Kd (FGFR2): 50 to 300 nM
Kd (FGFR3): 1 to 50 nM
Kd (FGFR3 (V555M)): 1 to 50 nM
Kd (FGFR4): 1 to 50 nM
IC50 [1]: 50 to 200 nM

CCNC1(C)CN(c2ncc(-c3n[nH]c4ccc(O[C@H](C)c5c(Cl)cncc5Cl)cc34)cc2C#N)C1 [Example 35, (R)-5-(5-(1-(3,5-dichloropyridin-4-yl)ethoxy)-1H-indazol-3-yl)-2-(3-(ethylamino)-3-methylazetidin-1-yl)nicotinonitrile]
Kd (FGFR1): 1 to 50 nM
Kd (FGFR2): 1 to 50 nM
Kd (FGFR3): 1 to 50 nM
Kd (FGFR3 (V555M)): 1 to 50 nM
Kd (FGFR4): 1 to 50 nM
IC50 [1]: 0.1 to 50 nM

CCN(CC)C1(C)CN(c2ncc(-c3n[nH]c4ccc(O[C@H](C)c5c(Cl)cnc(C)c5Cl)cc34)cc2C#N)C1 [Example 36, 5-[5-[(1R)-1-(3,5-dichloro-2-methyl-4-pyridyl)ethoxy]-1H-indazol-3-yl]-2-[3-(diethylamino)-3-methyl-azetidin-1-yl]pyridine-3-carbonitrile]
Kd (FGFR1): 50 to 300 nM
Kd (FGFR2): 50 to 300 nM
Kd (FGFR3): 1 to 50 nM
Kd (FGFR3 (V555M)): 1 to 50 nM
Kd (FGFR4): 1 to 50 nM
IC50 [1]: 200 to 1000 nM

Cc1ncc(Cl)c([C@@H](C)Oc2ccc3[nH]nc(-c4cnc(N5CC(C)(N6CCOCC6)C5)c(C#N)c4)c3c2)c1Cl [Example 38, 5-[5-[(1R)-1-(3,5-dichloro-2-methyl-4-pyridyl)ethoxy]-1H-indazol-3-yl]-2-(3-methyl-3-morpholino-azetidin-1-yl)pyridine-3-carbonitrile]
Kd (FGFR1): 300 to 1000 nM
Kd (FGFR2): 50 to 300 nM
Kd (FGFR3): 1 to 50 nM
Kd (FGFR3 (V555M)): 1 to 50 nM
Kd (FGFR4): 1 to 50 nM
IC50 [1]: 50 to 200 nM
